Measurements: patent US6803359B2, “Inhibition of abnormal cell growth with corticotropin-releasing hormone analogs” (The Regents of the University of California, priority 1999, dated 2004)
Marks after values point to notes of the source that are not given here.

Experiments:
[1] = in vivo, iv
Protocol: (§3) On the ordinate, the response is given in units of integrated blood pressure observed over a 100 minute period after the intravenous injection of the test substance is pentobarbital-anesthetized rats (no. of animals=8 per group per dose). The area-under-curve, is given in units of mm Hg per minute.

B16 melanoma = assay: Growth of subcutaneously transplanted B16 melanoma in mice (tumor volume by caliper); assay type: in vivo; conditions: 0.1 mg/kg s.c. on days 3 to 7
Protocol: (§1) This example illustrates the anti-cancer property of an inventive peptide with a D-amino acid as residue 20. Various tumor cells were transplanted into mice or rats and the tumor volume was measured using a caliper-ruler. The volume of the tumor, in cubic mm, was estimated as the long axis×the square of the short axis divided by 2.
In the experiment of Table 2, female mice, weighing 20-25 g, of a C57B1 line, were transplanted under the skin with B16 melanoma cells. After transplantation of tumors mice were mixed and divided into groups of controls, CRH-treated and [D-Glu^20] CRH-treated. The test substances at a dose of 0.1 mg/kg subcutaneously or the vehicle control (saline) was injected on days 3 to 7 after tumor transplantation, and the volume of tumors were measured at various days afterwards.

Walker carcinosarcoma = assay: Growth of subcutaneously transplanted Walker carcinosarcoma in rats (tumor volume); assay type: in vivo; conditions: 0.1 mg/kg
Protocol: as §1
(§2) The second experiment and third experiment (data shown in Tables 3 and 4) were conducted on white non-inbred male rats with a subcutaneous transplant of Walker carcinosarcoma or Ehrlich solid carcinoma. Animals after transplantation of tumors were mixed and were divided into groups of controls, CRH-treated and [D-Glu^20] CRH-treated.

Ehrlich solid carcinoma = assay: Growth of subcutaneously transplanted Ehrlich solid carcinoma in rats (tumor volume); assay type: in vivo; conditions: 0.1 mg/kg
Protocol: as §1, §2

[2] = tested on: W256 rat mammary carcinoma; conditions: 100 micrograms/kg subcutaneously twice a day for 3 days; cited from earlier work
W256 cells = conditions: in vitro; cited from earlier work
[3] = Hypotensive effect in pentobarbital-anesthetized male rats after i.v. injection; conditions: 0.05 mg/kg i.v.
Protocol: as §3

| Compound | hypotensive activity compared with unmodified CRH (human/rat) control [1] | Volume of Tumors (B16 melanoma; day 10 after transplantation) | Volume of Tumors (B16 melanoma; day 12 after transplantation) | Volume of Tumors (B16 melanoma; day 14 after transplantation) | Volume of Tumors (B16 melanoma; day 17 after transplantation) | Volume of Tumors (Walker carcinosarcoma; day 7 after transplantation) [mm^3] | Volume of Tumors (Walker carcinosarcoma; day 10 after transplantation) [mm^3] | Volume of Tumors (Walker carcinosarcoma; day 12 after transplantation) [mm^3] | Volume of Tumors (Walker carcinosarcoma; day 14 after transplantation) [mm^3] | Volume of Tumors (Ehrlich solid carcinoma; day 9 after transplantation) | Volume of Tumors (Ehrlich solid carcinoma; day 11 after transplantation) | Volume of Tumors (Ehrlich solid carcinoma; day 14 after transplantation) | inhibition of growth of intracerebrally-injected W256 tumor cells [2] | antiproliferative effects in W256 cell cultures (W256 cells) | average fall in mean blood pressure over a 100 minute period [3] [mm Hg] | integrated blood pressure response (area-under-curve) over a 100 minute period [3] |
| --- | --- | --- | --- | --- | --- | --- | --- | --- | --- | --- | --- | --- | --- | --- | --- | --- |
| CC[C@H](C)[C@H](NC(=O)[C@@H](NC(=O)[C@H](CCC(=O)O)NC(=O)[C@H](CCSC)NC(=O)[C@H](CC(C)C)NC(=O)[C@H](CCCCN)NC(=O)[C@H](CCCNC(=N)N)NC(=O)[C@H](CC(N)=O)NC(=O)[C@H](CO)NC(=O)[C@H](Cc1c[nH]cn1)NC(=O)[C@H](C)NC(=O)[C@H](CCC(N)=O)NC(=O)[C@H](CCC(N)=O)NC(=O)[C@H](C)NC(=O)[C@H](CC(C)C)NC(=O)[C@H](CCC(N)=O)NC(=O)[C@H](CCC(=O)O)NC(=O)[C@H](C)NC(=O)[C@H](CCCNC(=N)N)NC(=O)[C@H](C)NC(=O)[C@H](CCSC)NC(=O)[C@@H](CCC(=O)O)NC(=O)[C@H](CC(C)C)NC(=O)[C@@H](NC(=O)[C@H](CCC(=O)O)NC(=O)[C@H](CCCNC(=N)N)NC(=O)[C@H](CC(C)C)NC(=O)[C@H](CC(C)C)NC(=O)[C@H](Cc1c[nH]cn1)NC(=O)[C@H](Cc1ccccc1)NC(=O)[C@@H](NC(=O)[C@H](CC(C)C)NC(=O)[C@H](CC(=O)O)NC(=O)[C@H](CC(C)C)NC(=O)[C@H](CO)NC(=O)[C@@H](NC(=O)[C@@H]1CCCN1C(=O)[C@@H]1CCCN1C(=O)[C@H](CCC(=O)O)NC(=O)[C@H](CCC(=O)O)NC(=O)[C@@H](N)CO)[C@@H](C)CC)[C@@H](C)O)C(C)C)[C@@H](C)CC)C(N)=O [[D-Glu^20] CRH] | much less hypotensive activity | – | – | – | – | – | – | – | – | – | – | – | – | – | – | – |
| hCRH: unmodified human/rat corticotropin-releasing hormone, 41-residue C-terminally amidated peptide, SEQ ID NO 1 | – | 29 + 7* mm^3 | 157 + 23* mm^3 | 133 + 15* mm^3 | 238 + 41 mm^3 | 196 | 3600 ± 413 | 6942 | 10832 | 226 ± 14* mm^3 | 384 ± 61* mm^3 | 763 ± 114* mm^3 | significant inhibition of growth | antiproliferative effects | 72 | approximately 7200 mm Hg-min |
